According to US9725414B2, “Fungicidal N-bicycloalkyl and N-tricycloalkyl pyrazole-4-(thio)carboxamide derivatives” (priority 2011, dated 2017):

Assays:
Sphaerotheca fuliginea = test: Example A: in vivo preventive test on Sphaerotheca fuliginea (cucumber); settings: 500 ppm of active ingredient, evaluated 7 days after inoculation
Description: In Vivo Preventive Test on Sphaerotheca fuliginea (Cucumber) Solvent: 49 parts by weight of N,N-dimethylformamide Emulsifier: 1 part by weight of alkylarylpolyglycolether To produce a suitable preparation of active compound, 1 part by weight of active compound is mixed with the stated amounts of solvent and emulsifier, and the concentrate is diluted with water to the desired concentration. To test for preventive activity, young plants are sprayed with the preparation of active compound at the stated rate of application. One day after this treatment, the plants are inoculated with an aqueous spore suspension of Sphaerotheca fuliginea. Then the plants are placed in a greenhouse at approximately 23° C. and a relative atmospheric humidity of approximately 70%.

Alternaria solani = test: Example C: in vivo preventive test on Alternaria solani (tomato); settings: 500 ppm of active ingredient, evaluated 7 days after inoculation
Summary of the method: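 Young tomato plants sprayed preventively with compound formulated in DMF/emulsifier and diluted with water, then inoculated one day later with Alternaria solani spores. Plants were held one day at about 22° C, 100% humidity, then at about 20° C, 96% humidity.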

Structure (SMILES)	Efficacy (Sphaerotheca fuliginea)	Efficacy (Alternaria solani)
Cn1nc(C(F)F)c(C(=O)N(CC2CC3CCC2C3)C2CC2)c1F (stereo not shown) [Example 71]	100%	100%
CC(C1CC2CCC1C2)N(C(=O)c1c(C(F)F)nn(C)c1F)C1CC1 (stereo not shown) [Example 93]	100%	95%
